According to publication PMC2119975 (The Journal of Cell Biology, 1994):

How the values were obtained:
[1] = test system: HT1080 human fibrosarcoma cells; assay: Cell adhesion assay, HT1080 cells; format: cell-based; details: Fig. 7 B; coating and inhibitor 100 μM; EDTA 2 mM; cells preincubated
type II alveolar cells = assay: Alveolar inhibition studies on gelled BMS; format: cell-based, rat; details: Fig. 6; cells preincubated with peptide, up to 700 μM; day five; n = 9

O=C(O)CN(CCN(CC(=O)O)CC(=O)O)CC(=O)O [EDTA]
Inhibition of HT1080 cell adhesion to SN-peptide [1]: inhibited

FGNMGS
Effect of tryptic peptides of SN-peptide on alveolar formation (type II alveolar cells): minimal

WHSIYITR
Effect of tryptic peptides of SN-peptide on alveolar formation (type II alveolar cells): partial
